One block for each compound: values may come before it.
Columns and labels:
HDAC7 = target: T1, HDAC7 (Homo sapiens, UniProt Q8WUI4); assay: Measurement of biochemical activities of HDAC (fluorescently-labeled acetylated lysine substrate)
T1 sequence (Q8WUI4 1-952): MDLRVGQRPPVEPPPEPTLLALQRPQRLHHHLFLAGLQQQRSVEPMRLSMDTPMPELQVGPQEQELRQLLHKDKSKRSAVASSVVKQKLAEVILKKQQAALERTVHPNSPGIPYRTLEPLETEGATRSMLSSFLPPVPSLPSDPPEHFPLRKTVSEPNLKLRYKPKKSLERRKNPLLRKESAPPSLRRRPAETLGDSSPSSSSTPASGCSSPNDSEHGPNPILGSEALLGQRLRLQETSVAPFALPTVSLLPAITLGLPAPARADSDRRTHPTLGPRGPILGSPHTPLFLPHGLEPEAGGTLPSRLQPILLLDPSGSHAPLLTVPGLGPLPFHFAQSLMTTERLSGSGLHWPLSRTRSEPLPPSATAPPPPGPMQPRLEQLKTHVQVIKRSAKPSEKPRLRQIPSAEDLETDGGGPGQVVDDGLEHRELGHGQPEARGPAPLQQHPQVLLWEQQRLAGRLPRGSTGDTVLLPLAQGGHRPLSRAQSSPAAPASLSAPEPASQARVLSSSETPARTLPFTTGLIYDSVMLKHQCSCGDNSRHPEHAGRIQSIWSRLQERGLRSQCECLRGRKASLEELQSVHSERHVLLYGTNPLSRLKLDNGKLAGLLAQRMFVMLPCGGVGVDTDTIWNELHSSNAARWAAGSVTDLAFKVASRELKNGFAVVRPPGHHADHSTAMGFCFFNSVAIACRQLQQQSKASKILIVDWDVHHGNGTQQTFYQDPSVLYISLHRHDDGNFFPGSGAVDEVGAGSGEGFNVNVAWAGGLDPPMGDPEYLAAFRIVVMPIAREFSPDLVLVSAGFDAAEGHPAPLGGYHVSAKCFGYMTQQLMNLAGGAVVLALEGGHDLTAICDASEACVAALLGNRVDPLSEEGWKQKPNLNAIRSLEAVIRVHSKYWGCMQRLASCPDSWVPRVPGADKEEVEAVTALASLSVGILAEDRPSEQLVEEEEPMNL
How it was run: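 For both HDAC isoforms, fluorescent acetyl-lysine substrate ([…] in reaction) incubated with enzyme and compounds for 30 min at 37; developer then added for 15 min at room temperature. Fluorescence read at excitation 360 nm, emission 460 nm.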

Incap = assay: MTT cancer cell growth inhibition; assay type: cell-based; conditions: 72 h
[1] = tested on: human colon cancer HCT-116; assay: Subcutaneously transplanted tumors in nude mice; assay type: in vivo, BALB/cA nude mice; set-up: key to RTV (mean ± SD): RTV = Vt/V0, tumor volume at time t over volume at d0; conditions: for 1-T/C tumor inhibition rate: after three weeks; for RTV (mean ± SD) / TV (mean ± SD) d21: d21
Description: The solvents are isopropanol and anhydrous ethanol (mixed in the volume ratio of 1:1). The test sample is dissolved with solvents and physiological saline in the ratio of 1:1 for use, and the above solvents and physiological saline are dissolved in the ratio of 1:1 as a negative control.
The number of mice in each group: 12 mice in the negative control group, and 6 mice in the administration group.
The cell strains are inoculated to the right axilla subcutaneous layer of the nude mice, with 5×10^6 per mouse. After formed, the transplanted tumors are passed down two generations in the nude mice and then used.
Tumor tissues in the vigorous growth period are cut into about 1.5 mm^3, and inoculated to the right axilla subcutaneous layer of the nude mice under aseptic conditions. For the subcutaneously transplanted tumors of the nude mice, the diameter of the transplanted tumors is measured by a vernier caliper. The mice are randomly grouped after the tumors grow to 100-200 mm^3. […] The diameter of the transplanted tumors is measured twice per week in the whole experimental process, and meanwhile the weight of the mice is weighed. The calculation formula of tumor volume (TV) is TV=½×a×b^2, where a and b represent length and width, respectively.
The relative tumor volume (RTV) is calculated according to the measured results, with the following calculation formula: RTV=Vt/V0, where V0 is the tumor volume obtained by measurement during administration in different cages (i.e., d0), Vt is the tumor volume obtained by measurement at each time. […] (Wc−WT)Wc×100%, where Wc is the tumor weight of the control group, and WT is the tumor weight of the treatment group.

[2] = Table 2.1, 20 mg/kg q3d × 3w iv

IC50 HDAC7 (HDAC7): no activity
GI50 (Incap): 0.2 µM
Weight d0 [1, 2]: 16.1 g
Weight (mean ± SD) d 0 ([1]; Table 2.3, 20 mg/kg): 16.3 ± 1.0 g
Weight (mean ± SD) d 3 ([1]; Table 2.3, 20 mg/kg): 15.8 ± 1.1 g
Weight (mean ± SD) d 7 ([1]; Table 2.3, 20 mg/kg): 15.1 ± 0.9 g
Weight (mean ± SD) d 10 ([1]; Table 2.3, 20 mg/kg): 14.5 ± 1.2 g
Weight (mean ± SD) d 14 ([1]; Table 2.3, 20 mg/kg): 14.0 ± 1.0 g
Weight (mean ± SD) d 17 ([1]; Table 2.3, 20 mg/kg): 13.5 ± 0.9 g
Weight (mean ± SD) d 21 ([1]; Table 2.3, 20 mg/kg): 12.9 ± 0.9 g
Compound: C/C=C1\NC(=O)c2csc(n2)CNC(=O)C[C@@H](/C=C/CCSC(=O)CCCCCCC)OC(=O)[C@H](Cc2ccc(O)cc2)NC1=O [Compound 1-8]
1-T/C tumor inhibition rate [1, 2]: 69.49%
TV (mean ± SD) d0 [1, 2]: 116 ± 22 mm^3
RTV (mean ± SD) [1, 2]: 3.17 ± 2.08
TV (mean ± SD) d21 [1, 2]: 368 ± 241 mm^3
Tumor Volume TV (mean ± SD) d 0 ([1]; Table 2.2, 20 mg/kg): 118 ± 22 mm^3
Tumor Volume TV (mean ± SD) d 3 ([1]; Table 2.2, 20 mg/kg): 139 ± 15 mm^3
Tumor Volume TV (mean ± SD) d 7 ([1]; Table 2.2, 20 mg/kg): 165 ± 28 mm^3
Tumor Volume TV (mean ± SD) d 10 ([1]; Table 2.2, 20 mg/kg): 203 ± 69 mm^3
Tumor Volume TV (mean ± SD) d 14 ([1]; Table 2.2, 20 mg/kg): 265 ± 127 mm^3
Tumor Volume TV (mean ± SD) d 17 ([1]; Table 2.2, 20 mg/kg): 305 ± 142 mm^3

IC50 HDAC7 (HDAC7): no activity
GI50 (Incap): 1.2 µM
Weight d0 [1, 2]: 16.9 g
Weight (mean ± SD) d 0 ([1]; Table 2.3, 20 mg/kg): 16.9 ± 1.0 g
Weight (mean ± SD) d 3 ([1]; Table 2.3, 20 mg/kg): 16.6 ± 1.8 g
Weight (mean ± SD) d 7 ([1]; Table 2.3, 20 mg/kg): 15.9 ± 1.6 g
Weight (mean ± SD) d 10 ([1]; Table 2.3, 20 mg/kg): 15.5 ± 1.6 g
Weight (mean ± SD) d 14 ([1]; Table 2.3, 20 mg/kg): 14.8 ± 1.8 g
Weight (mean ± SD) d 17 ([1]; Table 2.3, 20 mg/kg): 14.2 ± 1.7 g
Weight (mean ± SD) d 21 ([1]; Table 2.3, 20 mg/kg): 13.1 ± 1.6 g
Compound: C/C=C1\NC(=O)c2csc(n2)CNC(=O)C[C@@H](/C=C/CCSC(=O)CCCCCCC)OC(=O)[C@H](C(C)(C)C)NC1=O [Compound 1-6]
1-T/C tumor inhibition rate [1, 2]: 74.09%
TV (mean ± SD) d0 [1, 2]: 121 ± 28 mm^3
RTV (mean ± SD) [1, 2]: 2.69 ± 1.82
TV (mean ± SD) d21 [1, 2]: 326 ± 221 mm^3
Tumor Volume TV (mean ± SD) d 0 ([1]; Table 2.2, 20 mg/kg): 120 ± 28 mm^3
Tumor Volume TV (mean ± SD) d 3 ([1]; Table 2.2, 20 mg/kg): 129 ± 15 mm^3
Tumor Volume TV (mean ± SD) d 7 ([1]; Table 2.2, 20 mg/kg): 156 ± 23 mm^3
Tumor Volume TV (mean ± SD) d 10 ([1]; Table 2.2, 20 mg/kg): 195 ± 58 mm^3
Tumor Volume TV (mean ± SD) d 14 ([1]; Table 2.2, 20 mg/kg): 249 ± 110 mm^3
Tumor Volume TV (mean ± SD) d 17 ([1]; Table 2.2, 20 mg/kg): 265 ± 122 mm^3

Compound: O=C(CCCCCCC(=O)Nc1ccccc1)NO [SAHA, suberoylanilide hydroxamic acid, reference compound]
IC50 HDAC7 (HDAC7): no activity
GI50 (Incap): 4.56 µM
TV (mean ± SD) d0 ([1]; Table 1.1, 50 mg/kg qd × 3w iv): 116 ± 27 mm^3
Weight d0 ([1]; Table 1.1, 50 mg/kg qd × 3w iv): 16.6 g
RTV (mean ± SD) ([1]; Table 1.1, 50 mg/kg qd × 3w iv): 4.87 ± 1.68
TV (mean ± SD) d21 ([1]; Table 1.1, 50 mg/kg qd × 3w iv): 566 ± 221 mm^3
Tumor Volume TV (mean ± SD) d 0 ([1]; Table 1.2, 50 mg/kg): 116 ± 27 mm^3
Tumor Volume TV (mean ± SD) d 3 ([1]; Table 1.2, 50 mg/kg): 146 ± 38 mm^3
Tumor Volume TV (mean ± SD) d 7 ([1]; Table 1.2, 50 mg/kg): 191 ± 25 mm^3
Tumor Volume TV (mean ± SD) d 10 ([1]; Table 1.2, 50 mg/kg): 283 ± 41 mm^3
Tumor Volume TV (mean ± SD) d 14 ([1]; Table 1.2, 50 mg/kg): 326 ± 45 mm^3
Tumor Volume TV (mean ± SD) d 17 ([1]; Table 1.2, 50 mg/kg): 417 ± 140 mm^3
Weight (mean ± SD) d 0 ([1]; Table 1.3, 50 mg/kg): 16.6 ± 1.5 g
Weight (mean ± SD) d 3 ([1]; Table 1.3, 50 mg/kg): 15.9 ± 1.5 g
Weight (mean ± SD) d 7 ([1]; Table 1.3, 50 mg/kg): 14.9 ± 1.8 g
Weight (mean ± SD) d 10 ([1]; Table 1.3, 50 mg/kg): 14.6 ± 1.4 g
Weight (mean ± SD) d 14 ([1]; Table 1.3, 50 mg/kg): 14.1 ± 1.3 g
Weight (mean ± SD) d 17 ([1]; Table 1.3, 50 mg/kg): 13.6 ± 1.3 g
Weight (mean ± SD) d 21 ([1]; Table 1.3, 50 mg/kg): 13.3 ± 1.1 g
TV (mean ± SD) d0 ([1]; Table 2.1, 50 mg/kg qd × 3w iv): 118 ± 25 mm^3
Weight d0 ([1]; Table 2.1, 50 mg/kg qd × 3w iv): 16.9 g
RTV (mean ± SD) ([1]; Table 2.1, 50 mg/kg qd × 3w iv): 4.54 ± 1.72
TV (mean ± SD) d21 ([1]; Table 2.1, 50 mg/kg qd × 3w iv): 536 ± 203 mm^3
Tumor Volume TV (mean ± SD) d 0 ([1]; Table 2.2, 50 mg/kg): 120 ± 25 mm^3
Tumor Volume TV (mean ± SD) d 3 ([1]; Table 2.2, 50 mg/kg): 146 ± 36 mm^3
Tumor Volume TV (mean ± SD) d 7 ([1]; Table 2.2, 50 mg/kg): 189 ± 20 mm^3
Tumor Volume TV (mean ± SD) d 10 ([1]; Table 2.2, 50 mg/kg): 263 ± 33 mm^3
Tumor Volume TV (mean ± SD) d 14 ([1]; Table 2.2, 50 mg/kg): 300 ± 35 mm^3
Tumor Volume TV (mean ± SD) d 17 ([1]; Table 2.2, 50 mg/kg): 402 ± 146 mm^3
Weight (mean ± SD) d 0 ([1]; Table 2.3, 50 mg/kg): 16.8 ± 1.0 g
Weight (mean ± SD) d 3 ([1]; Table 2.3, 50 mg/kg): 15.7 ± 1.2 g
Weight (mean ± SD) d 7 ([1]; Table 2.3, 50 mg/kg): 14.9 ± 1.6 g
Weight (mean ± SD) d 10 ([1]; Table 2.3, 50 mg/kg): 14.6 ± 1.5 g
Weight (mean ± SD) d 14 ([1]; Table 2.3, 50 mg/kg): 14.2 ± 1.4 g
Weight (mean ± SD) d 17 ([1]; Table 2.3, 50 mg/kg): 13.8 ± 1.3 g
Weight (mean ± SD) d 21 ([1]; Table 2.3, 50 mg/kg): 13.4 ± 1.1 g
